The values that follow come from ChEMBL document CHEMBL5729192, “CD73 inhibitors” (2022).

Each structure is given as a SMILES string. pIC50: −log10 of the molar value.

In general, pIC50 refers to the IC50 on a negative log10 scale, so that one unit is a factor of ten. Higher therefore signals a low IC50.

5'-nucleotidase, sequence (P21589 whole entry): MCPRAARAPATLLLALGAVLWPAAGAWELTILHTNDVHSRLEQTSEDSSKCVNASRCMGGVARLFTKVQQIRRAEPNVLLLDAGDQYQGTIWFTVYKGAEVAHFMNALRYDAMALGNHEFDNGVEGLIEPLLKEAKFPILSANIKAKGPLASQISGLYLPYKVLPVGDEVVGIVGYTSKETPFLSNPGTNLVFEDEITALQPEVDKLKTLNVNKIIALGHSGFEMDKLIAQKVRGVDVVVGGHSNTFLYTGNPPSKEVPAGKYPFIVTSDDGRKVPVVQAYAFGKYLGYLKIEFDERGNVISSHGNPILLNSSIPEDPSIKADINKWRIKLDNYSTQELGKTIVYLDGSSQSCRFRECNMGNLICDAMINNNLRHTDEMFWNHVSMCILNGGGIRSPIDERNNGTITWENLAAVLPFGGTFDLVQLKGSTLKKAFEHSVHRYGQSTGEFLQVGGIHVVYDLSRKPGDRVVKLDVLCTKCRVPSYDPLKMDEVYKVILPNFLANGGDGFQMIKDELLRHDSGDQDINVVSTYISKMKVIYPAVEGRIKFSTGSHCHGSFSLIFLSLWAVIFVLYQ

The assay has as its target 5'-nucleotidase (Homo sapiens, UniProt P21589). As to the kind of experiment: Biochemical Assay: Assay Reaction ConditionsAssay Volume: 70 μlReaction Volume: 50 μlCD73: 0.3208 nMAMP: 15 μMAssay Buffer: 2 5 mM Tris-HCL, pH 7.4, 0.01% Brij-35, 0.01% BSA, 5 mM MgCl2Assay Procedure:Used 384 clear plate.Made dose titration of testing compounds in assay buffer, 10 points ½ log titrations in duplicates starting at 100 μM.Added 25 μl of CD73 to each well for a final concentration of 320 pM.Incubated at RT for 15 min.Added 25 μl of AMP to each well for a final concentration of 15 μM.Incubated at RT for 10 min.Added 10 μl of Malachite Green Reagent A, incubate at RT for 10 min.Added 10 μl of Malachite Green Reagent B, incubate at RT for 45 min.Read the Absorbance on Envision plate reader using excitation filter: Cy5 620 nM.
In turn, `C[C@]1(O)C[C@@H](Nc2nc(Cl)nc3c2cnn3[C@@H]2O[C@H](COCP(=O)(O)O)[C@@H](O)[C@H]2O)C1` gave a pIC50 of more than 6.30.
Then `CNc1nc(Cl)nc2c1cnn2[C@@H]1O[C@H](COCP(=O)(O)O)[C@@H](O)[C@H]1O`, with more than 6.30; and `O=P(O)(O)COC[C@H]1O[C@@H](n2ncc3c(NCc4cccc(Cl)c4Cl)nc(Cl)nc32)[C@H](O)[C@@H]1O`, with more than 6.30.
